From ChEMBL document CHEMBL2439958, “Inhibitory effect of oxygenated cholestan-3β-ol derivatives on the growth of Mycobacterium tuberculosis” (Bioorg Med Chem Lett, 2013) come the findings set out here.

The structures appear in SMILES notation. pIC50: −log10 of the molar value. In brackets after ≈: the same amount, converted by molar mass. A value given as a limit tells only on which side of the number the result lay.

The test system of one test is Vero. The test can be described thus: Cytotoxicity against african green monkey Vero cells by tetrazolium dye reduction assay. Type of test: ADME, cell-based. The conditions noted are these: Chlorocebus sabaeus.
The test system of test [1] is Mycobacterium tuberculosis. The test can be described thus: microbe, parasite or virus in culture. Format: functional. The conditions noted are these: H37Rv.
Test [2] can be described thus: Selectivity index, ratio of IC50 for african green monkey Vero cells to MIC90 for Mycobacterium tuberculosis H37Rv. Format: functional.

In general, pIC50 refers to −log10 of the IC50, conventionally taken in molar units. For the compound `CC(=O)O[C@H]1CC[C@@]2(C)[C@@H](CC(=O)[C@@H]3[C@@H]2CC[C@]2(C)[C@@H]([C@H](C)CCCC(C)(C)O)CC[C@@H]32)C1`, in the test on Vero, the pIC50 is under 3.89. This compound also came in with an MIC90 in test [1] of over 128 µM.
The compound `CC(C)CCC[C@@H](C)[C@H]1CC[C@H]2[C@@H]3C(=O)C[C@H]4C[C@@H](O)CC[C@]4(C)[C@H]3CC[C@]12C` showed a pIC50 with Vero of 4.21. Besides, in test [2], the “Selectivity Index” value was found to be 7.8. In addition, the MIC90 in test [1] stood at 8 µM (≈ 3.22 µg/mL).
The corresponding values for `C[C@H](CCCC(C)(C)O)[C@H]1CC[C@H]2[C@@H]3[C@@H](O)C[C@H]4C[C@@H](O)CC[C@]4(C)[C@H]3CC[C@]12C` are under 3.89, over 5.3 and 24 µM (≈ 10.1 µg/mL).
The compound `CC(C)CCC[C@@H](C)[C@H]1CC[C@H]2[C@@H]3[C@@H](O)C[C@H]4C[C@@H](O)CC[C@]4(C)[C@H]3CC[C@]12C` gave an MIC90 in test [1] of over 128 µM.
Consider `C[C@@H](CO)CCC[C@@H](C)[C@H]1[C@@H](O)C[C@H]2[C@@H]3CC=C4C[C@@H](O)CC[C@]4(C)[C@H]3CC[C@]12C`, for which the negative-log IC50 (pIC50) in the test on Vero was under 3.89. In addition, in test [2], the “Selectivity Index” value is listed as over 21. This compound displayed an MIC90 in test [1] of 6 µM (≈ 2.51 µg/mL).
On to `C[C@H](CCCC(C)(C)O)[C@H]1CC[C@H]2[C@@H]3CC=C4C[C@@H](O)CC[C@]4(C)[C@H]3CC[C@]12C`, for which the pIC50 in the test with Vero was under 3.89. In addition, the MIC90 in test [1] is over 128 µM.
`CC(C)CCC[C@@H](C)[C@H]1CC[C@H]2[C@@H]3[C@H](O)C[C@H]4C[C@@H](O)CC[C@]4(C)[C@H]3CC[C@]12C` gave an MIC90 in test [1] of over 128 µM.
For `CC(=O)O[C@H]1CC[C@@]2(C)C(=CC(=O)[C@H]3[C@@H]4CC[C@H]([C@H](C)CCCC(C)C)[C@@]4(C)CC[C@@H]32)C1` [7-OXOCHOLESTERYL ACETATE], the pIC50 in the test on Vero is under 3.89. Also, the MIC90 in test [1] was over 128 µM.
In turn, `C[C@H](CCCC(C)(C)O)[C@H]1CC[C@H]2[C@@H]3[C@H](O)C[C@H]4C[C@@H](O)CC[C@]4(C)[C@H]3CC[C@]12C` gave an MIC90 in test [1] of over 128 µM.
Take `CC(C)CCC[C@@H](C)[C@H]1CC[C@H]2[C@@H]3[C@H](F)C(=O)[C@H]4C[C@@H](O)CC[C@]4(C)[C@H]3CC[C@]12C`: the pIC50 in the test on Vero was 4.40. In addition, in test [2], the “Selectivity Index” value stood at 8.7. The MIC90 in test [1] came out at 4.6 µM (≈ 1.94 µg/mL).
With `CC(C)CCC[C@@H](C)[C@H]1CC[C@H]2[C@@H]3C(=O)C=C4C[C@@H](O)CC[C@]4(C)[C@H]3CC[C@]12C` [7-OXOCHOLESTEROL], the negative logarithm of the IC50 (pIC50) in the test with Vero is 4.12. Further, the “Selectivity Index” value in test [2] is recorded as under 0.6. The compound further gave an MIC90 in test [1] of over 128 µM.
Compound `CC(C)CCC[C@@H](C)[C@H]1CC[C@H]2[C@@H]3CC(=O)[C@H]4C[C@@H](O[Si](C)(C)C)CC[C@]4(C)[C@H]3CC[C@]12C` showed a negative logarithm of the IC50 (pIC50) in the test with Vero of 4.42. Also, the “Selectivity Index” value in test [2] was found to be 10.9. In test [1], this compound came in with an MIC90 of 3.5 µM (≈ 1.66 µg/mL).
In turn, `CC(C)CCC[C@@H](C)[C@H]1CC[C@H]2[C@@H]3[C@H](F)[C@@H](O)[C@H]4C[C@@H](O)CC[C@]4(C)[C@H]3CC[C@]12C` gave a pIC50 in the test with Vero of 4.39. In test [2], the “Selectivity Index” value is given as under 0.4. Also, the MIC90 in test [1] is over 128 µM.
On to `C[C@@H](CO)CCC[C@@H](C)[C@H]1CC[C@H]2[C@@H]3CC=C4C[C@@H](O)CC[C@]4(C)[C@H]3CC[C@]12C`, for which, in test [1], the MIC90 is over 128 µM.
`CC(=O)O[C@H]1CC[C@@]2(C)C(=CC[C@H]3[C@@H]4CC[C@H]([C@H](C)CCCC(C)(C)O)[C@@]4(C)CC[C@@H]32)C1` came in with an MIC90 in test [1] of over 128 µM.
On the same count and under the same terms, with `CO[C@H]1/C=C/O[C@@]2(C)Oc3c(C)c(O)c4c(O)c(c(/C=N/N5CCN(C)CC5)c(O)c4c3C2=O)NC(=O)/C(C)=C\C=C\[C@H](C)[C@H](O)[C@@H](C)[C@@H](O)[C@@H](C)[C@H](OC(C)=O)[C@@H]1C` [RIFAMPIN] the figure was 0.07 µM (≈ 0.0576 µg/mL).
As to `NNC(=O)c1ccncc1` [ISONIAZID], the negative-log IC50 (pIC50) with Vero was under 3.89. Also, the “Selectivity Index” value in test [2] is recorded as over 320. Moreover, the MIC90 in test [1] was 0.4 µM (≈ 0.0549 µg/mL).
Compound `CC(C)CCC[C@@H](C)[C@H]1CC[C@H]2[C@@H]3CC(=O)[C@H]4C[C@@H](O)CC[C@]4(C)[C@H]3CC[C@]12C` [5alpha-CHOLESTAN-3beta-OL-6-ONE] had a negative logarithm of the IC50 (pIC50) in the test with Vero of 4.04. In addition, the “Selectivity Index” value in test [2] came out at 15.3. The MIC90 in test [1] stood at 6 µM (≈ 2.42 µg/mL).
Consider `C[C@@H]1CC[C@@]2(OC1)O[C@H]1C[C@H]3[C@@H]4CC=C5C[C@@H](O)CC[C@]5(C)[C@H]4CC[C@]3(C)[C@H]1[C@@H]2C` [DISOGENIN], for which, in test [1], the MIC90 was over 128 µM.
Compound `CC(=O)O[C@H]1CC[C@@]2(C)C(=CC(=O)[C@H]3[C@@H]4CC[C@H]([C@H](C)CCCC(C)(C)O)[C@@]4(C)CC[C@@H]32)C1` gave a pIC50 in the test with Vero of under 3.89. This compound also came in with an MIC90 in test [1] of over 128 µM.
For `CC(=O)O[C@H]1CC[C@@]2(C)[C@@H](CC(=O)[C@@H]3[C@@H]2CC[C@]2(C)[C@@H]([C@H](C)CCCC(C)C)CC[C@@H]32)C1`, in that order: under 3.89 and over 128 µM.
